Laboratory results published in publication PMC6934184, “Selective DNA-PKcs inhibition extends the therapeutic index of localized radiotherapy and chemotherapy” (The Journal of Clinical Investigation, 2019).

Target: T1, ICK (Homo sapiens, UniProt Q9UPZ9)
T1 construct: purchased Thermo Fisher Scientific (Life Technologies) SelectScreen
Assay: SelectScreen LanthaScreen
Assay type: binding
Conditions: read-out: % displacement
Method in brief: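 NU5455 was profiled across the SelectScreen Broad panel of kinase activity and binding assays. Z'LYTE reactions such as CSF1R ran at apparent Km ATP, while the Adapta CAMK1 assay used ATP listed as 10. Values are given as percent.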

T1 sequence (Q9UPZ9 whole entry): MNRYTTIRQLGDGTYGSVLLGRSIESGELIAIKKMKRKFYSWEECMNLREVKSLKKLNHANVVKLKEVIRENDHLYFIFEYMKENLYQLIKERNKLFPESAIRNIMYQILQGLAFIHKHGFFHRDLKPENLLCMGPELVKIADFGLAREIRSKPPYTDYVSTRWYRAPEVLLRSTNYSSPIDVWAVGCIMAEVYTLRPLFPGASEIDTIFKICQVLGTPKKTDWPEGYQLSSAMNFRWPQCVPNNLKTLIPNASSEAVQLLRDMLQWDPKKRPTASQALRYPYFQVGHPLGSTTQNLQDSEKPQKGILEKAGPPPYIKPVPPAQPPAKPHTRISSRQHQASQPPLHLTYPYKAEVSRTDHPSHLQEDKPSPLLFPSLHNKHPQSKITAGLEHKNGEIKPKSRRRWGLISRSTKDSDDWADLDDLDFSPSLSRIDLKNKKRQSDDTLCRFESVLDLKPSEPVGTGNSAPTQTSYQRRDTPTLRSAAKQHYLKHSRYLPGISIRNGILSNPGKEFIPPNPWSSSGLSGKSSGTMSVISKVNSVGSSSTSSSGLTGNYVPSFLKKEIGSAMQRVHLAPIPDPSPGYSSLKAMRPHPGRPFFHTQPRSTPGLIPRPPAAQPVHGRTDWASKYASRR

## CN(C(=O)CN1CCOCC1)c1ccc2sc3c(-c4cccc5c(=O)cc(N6CC7CCC(C6)O7)oc45)cccc3c2c1 [NU5455]
  inhibition at 1 µM: 0%
